Test results as given in patent US8143274B2, “1-(2H)-isoquinolone derivative” (Chugai Seiyaku Kabushiki Kaisha, priority 2004, dated 2012).
pIC50: −log10 of the molar value.

Columns and labels:
[1] = tested on: human colon cancer cell line HCT116 transplanted subcutaneously; assay: Measurement of antitumor effect in HCT116 tumor-bearing nude mouse; format: in vivo, BALB/c nude mouse; settings: oral, administered twice (initiation date and 3 days after)
Method: [Measurement of Antitumor Effect]
A representative example of the compound group of the present invention was measured in terms of antitumor effect.
Such antitumor effect was examined, using a tumor-bearing mouse produced by transplanting the human colon cancer cell line HCT116 obtained from American Type Culture Collection (Virginia, U.S.A) into the inguinal subcutis of a BALB/c nude mouse purchased from Charles River Laboratories Japan, Inc. The purchased nude mouse was quarantined for 1 week. Thereafter, approximately 5×10^6 HCT116 cells were transplanted subcutaneously. When the size of a tumor thereof became about 200 mm^3, the mouse was subjected to the present experiment.
Each compound was dissolved or suspended in a solution to be administered, and 0.5 ml of the solution was orally administered. Such administration was carried out twice in total, that is, on the initiation date of administration and 3 days after the administration. The antitumor effect was calculated as a tumor growth inhibition by comparing the solution administration group with a control group in terms of tumor growth. Tumor growth inhibition(TGI)=(1−the tumor growth amount of agent-treated group/the tumor growth amount of control group)×100(%)

[2] = tested on: human colon cancer cell line HCT116; assay: Measurement of cell growth inhibitory activity (Cell Counting Kit-8); format: cell-based; settings: HCT-116, 96 h, HCT116, 2,000 cells/well, cultured 4 days
Method: [Measurement of Cell Growth Inhibitory Activity]
Several representative examples of the compound group of the present invention were measured in terms of cell growth inhibitory activity.
Cancer cell growth inhibitory activity was measured using Cell Counting Kit-8 manufactured by Dojindo Laboratories. The human colon cancer cell line HCT116 obtained from American Type Culture Collection (Virginia, U.S.A) was inoculated in a 96-well culture plate at a concentration of 2,000 cells/well. Thereafter, a certain concentration of compound was added thereto, and the obtained mixture was then cultured at 37° C. in 5% CO2 for 4 days. On the 4th day of the culture, a Cell Counting Kit-8 solution was added to the culture product, and absorbance (measurement wavelength: 450 nm; reference wavelength: 615 nm) was measured in accordance with protocols included with the kit. Thereafter, 50% growth inhibitory concentration (IC50) was calculated.

Row | SMILES | pIC50 [2] | TGI (%) on day 7 ([1]; dose 12.5 mg/kg) [%] | TGI (%) on day 7 ([1]; dose 200 mg/kg) [%] | TGI (%) on day 7 ([1]; dose 50 mg/kg) [%]
1 | CCOC(=O)Nc1ccc2cc(-c3ccccc3C(F)(F)F)[nH]c(=O)c2c1 [Compound 61, ethyl[1-oxo-3-(2-trifluoromethylphenyl)-1,2-dihydroisoquinolin-7-yl]carbamate] | 7.68 |  | 73 | 
2 | O=c1[nH]c(-c2ccccc2)cc2ccc(N3CCC(CO)CC3)cc12 [Compound 21, 7-(4-hydroxymethylpiperidin-1-yl)-3-phenyl-2H-isoquinolin-1-one] | 7.70 |  |  | 
3 | O=c1[nH]c(-c2ccccc2C(F)(F)F)cc2ccc(N3CCCCC3)cc12 [Compound 10, 7-piperidin-1-yl-3-(2-trifluoromethylphenyl)-2H-isoquinolin-1-one] | 7.01 |  |  | 91
4 | O=c1[nH]c(-c2ccccc2)cc2ccc(N3CCC(O)C3)cc12 (stereo not drawn) [Compound 36, 7-(3-hydroxypyrrolidin-1-yl)-3-phenyl-2H-isoquinolin-1-one] | 7.74 |  |  | 

Second part, led by results:

Row | pIC50 [2] | SMILES | TGI (%) on day 7 ([1]; dose 12.5 mg/kg) [%] | TGI (%) on day 7 ([1]; dose 200 mg/kg) [%] | TGI (%) on day 7 ([1]; dose 50 mg/kg) [%]
5 | 7.55 | O=c1[nH]c(-c2ccccc2)cc2ccc(N3CCOCC3)cc12 [Compound 8, 7-morpholin-4-yl-3-phenyl-2H-isoquinolin-1-one] | 96 |  | 
6 | 7.28 | O=c1[nH]c(-c2ccccc2C(F)(F)F)cc2ccc(N3CCC(O)CC3)cc12 [Compound 29, 7-(4-hydroxypiperidin-1-yl)-3-(2-trifluoromethylphenyl)-2H-isoquinolin-1-one] |  |  | 
